Results: publication doi:10.1101/2025.03.04.25323177v1 (medRxiv, 2025)
No end group written: not given here.

Tested on: Anti-PACAP antibodies (capture Lu AG20136, detection Lu AG20141)
Assay: Reactivity in PACAP MSD S-PLEX sandwich immunoassay
Assay type: binding
Settings: sandwich ECL immunoassay

Row | Molecule | Reactivity in PACAP MSD S-PLEX assay
1 | vasoactive intestinal peptide (HSDAVFTDNYTRLRKQMAVKKYLNSILN; ends and bridges not checked; UniProt P01282 125-152, looked up) [VIP] | No reactivity
2 | ceruloplasmin: protein tested for interaction in the PACAP assay (protein, UniProt P00450 20-1065, looked up) Ceruloplasmin: KEKHYYIGIIETTWDYASDHGEKKLISVDTEHSNIYLQNGPDRIGRLYKKALYLQYTDETFRTTIEKPVWLGFLGPIIKAETGDKVYVHLKNLASRPYTFHSHGITYYKEHEGAIYPDNTTDFQRADDKVYPGEQYTYMLLATEEQSPGEGDGNCVTRIYHSHIDAPKDIASGLIGPLIICKKDSLDKEKEKHIDREFVVMFSVVDENFSWYLEDNIKTYCSEPEKVDKDNEDFQESNRMYSVNGYTFGSLPGLSMCAEDRVKWYLFGMGNEVDVHAAFFHGQALTNKNYRIDTINLFPATLFDAYMVAQNPGEWMLSCQNLNHLKAGLQAFFQVQECNKSSSKDNIRGKHVRHYYIAAEEIIWNYAPSGIDIFTKENLTAPGSDSAVFFEQGTTRIGGSYKKLVYREYTDASFTNRKERGPEEEHLGILGPVIWAEVGDTIRVTFHNKGAYPLSIEPIGVRFNKNNEGTYYSPNYNPQSRSVPPSASHVAPTETFTYEWTVPKEVGPTNADPVCLAKMYYSAVEPTKDIFTGLIGPMKICKKGSLHANGRQKDVDKEFYLFPTVFDENESLLLEDNIRMFTTAPDQVDKEDEDFQESNKMHSMNGFMYGNQPGLTMCKGDSVVWYLFSAGNEADVHGIYFSGNTYLWRGERRDTANLFPQTSLTLHMWPDTEGTFNVECLTTDHYTGGMKQKYTVNQCRRQSEDSTFYLGERTYYIAAVEVEWDYSPQREWEKELHHLQEQNVSNAFLDKGEFYIGSKYKKVVYRQYTDSTFRVPVERKAEEEHLGILGPQLHADVGDKVKIIFKNMATRPYSIHAHGVQTESSTVTPTLPGETLTYVWKIPERSGAGTEDSACIPWAYYSTVDQVKDLYSGLIGPLIVCRRPYLKVFNPRRKLEFALLFLVFDENESWYLDDNIKTYSDHPEKVNKDDEEFIESNKMHAINGRMFGNLQGLTMHVGDEVNWYLMGMGNEIDLHTVHFHGHSFQYKHRGVYSSDVFDIFPGTYQTLEMFPRTPGIWLLHCHVTDHIHAGMETTYTVLQNEDTKSG | no interaction
